Peptide text beside a SMILES is read from it.
Legend:
PAH2 domain of SIN3A = molecular target: T1, PAH2 domain of SIN3A (Mus musculus, UniProt Q60520); assay: Fluorescence anisotropy competition assay, FITC-labeled Mad1 peptide probe; conditions: 70 nM PAH2 domain, 10 nM probe, PBS pH 7.4, 0.01% BSA, 1 h, 25°C; read-out: IC50, competition for binding to FITC-labeled MAD probe
T1 construct: The PAH2 domain of mSin3A was overexpressed in the E. coli BL21 (DE3) codon plus RIL strain; His tag (inferred from Ni2+ chelating column); made in house; host or cells: E. coli BL21 (DE3) codon plus RIL
T1 sequence (Q60520 300-383 limits assumed): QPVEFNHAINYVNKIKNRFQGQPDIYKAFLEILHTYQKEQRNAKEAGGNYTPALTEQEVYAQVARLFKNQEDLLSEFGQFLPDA
Description: The PAH2 domain of mSin3A was overexpressed in the E. coli BL21 (DE3) codon plus RIL strain (Stratagene) by addition of 1 mM isopropyl-1-thio-D-galactopyranoside and incubation overnight at 15°C. Harvested cells were re-suspended in 50 mM sodium phosphate buffer, pH 7.4, supplemented with 500 mM sodium chloride, 5% glycerol, and 0.1% Igepal CA-630 and lysed using a microfluidizer (Micro-fluidics) at 20,000 psi. After clarification of the crude extract by high-speed centrifugation, the lysate was loaded onto a 5 ml HiTrap chelating column (GE Healthcare) charged with Ni2+. The column was washed and the protein was eluted with 30 mM HEPES pH 7.4, 250 mM sodium chloride, and 250 mM imidazole. The protein was next purified on a Superdex75 column (GE Healthcare) equilibrated with 20 mM Tris-HCl buffer, pH 8.0, and 150 mM sodium chloride. Fractions containing the pure protein were combined and concentrated with 3 kDa MWCO centrifugal filters (Amicon).
The binding affinity of pSID for SIN3A was assessed in a fluorescence anisotropy competition assay using a fluorescein isothiocyanate-labeled Mad1 peptide as an assay probe. […] Measurements were obtained after a 1 h incubation of the fluorescent ligand and the protein at 25°C with a Safire 2 microplate reader (Tecan). […]

[1] = tested on: H3K4me3 at the CDH1 and ESR1 promoters; set-up: method as in PMID 20547842; conditions: SID peptide, longer time period; cited from earlier work
MDA-MB-231 cells [2] = assay: FACS CD44/CD24 in MDA-MB-231; assay type: cell-based, human; conditions: 1 μM, 72 h; mean of three independent experiments; p = 0.01
Description: (§1) For aldehyde dehydrogenase assay, cells were dissociated with PBS-EDTA and tested for ALDH activity (2 × 10^5 cells/sample), using the Aldefluor assay (Aldegen) according to the manufacturer's instructions. For CD44 and CD24 antigens, cells were dissociated with Accutase, washed with PBS and incubated with PE-conjugated anti-CD24 and APC-conjugated anti-CD44 antibodies (BD Biosciences) for 40 minutes in ice. For quantification of NANOG, OCT4 and SOX2 dissociated cells were fixed with 1% paraformaldehyde (15 min at RT), permeabilized with 0.5% TritonX100 (10 min at RT) and incubated with 1:100 diluted antibodies against NANOG, OCT4 and SOX2 (Cell Signaling) for 1 h at room temperature. The cells were then washed and incubated with fluorophore-conjugated secondary antibodies Abcam). FACS analysis was carried out using a FACScanto flow cytometer, DIVA software program for acquisition (BD Biosciences) and FlowJo (Treestar.) software for analysis.

4T1 cells = assay: Lung metastasis of 4T1 cells in Balb/c mice; assay type: in vivo, mouse
Description: 4T1 cells were treated for 14 days with water, Tat-Scr (2.5 μM) or Tat-SID (1 & 2.5 μM) and then inoculated orthotopically in the inguinal mammary gland of Balb/c mice (n = 5). […] Tumor volumes were calculated as ellipsoids (Dxd^2/2) by measuring the main diameter (D) and the smaller diameter (d) and plotted versus time (days). The experiment was stopped when tumors in the control group reached ∼500 mm^3, then, the mice were sacrificed, tumors were isolated for weight and lungs were isolated for metastatic foci analysis. Similar experiment was also performed using MMTV-Myc cells. In another set of experiments 4T1 cells stably transfected with Scr-shRNA or PF1-shRNA were inoculated in interscapular space of Balb/c mice (n = 10). […] Tumor-free survival was calculated from Kaplan-Meier curves, and statistical significance was determined using the log-rank test for survival and the t-test for tumor growth. Metastatic dissemination was evaluated by dissecting the lungs from sacrificed mice and inspecting the Bouin-fixed (Sigma) lung surface for lesions using a stereoscope (Nikon SMZ800 stereoscope X3 to X5). […] After 6 days, the number of colonies formed (each originating from a single tumor cell) were counted to evaluate the number of disseminated tumor cells (DTCs). To evaluate DTC proliferation, the number of cells per colony were counted using ImageJ software.

MDA-MB-231 cells [3] = assay: 3D culture colony morphogenesis of MDA-MB-231; assay type: cell-based, human; conditions: 3D matrigel, 10 days
Description: MDA-MB-231 cells were cultured on 8 chambered wells (BD Biosciences) and fixed with 4% paraformaldehyde/PBS for 15 min at room temperature. For 3D cultures cells were seeded (3 × 10^3/well) in quadruplicate onto Matrigel (BD Biosciences) or Cultrex basement membrane extracts (Trevigen) in 8-well culture slides to prepare three-dimensional cultures as described earlier. […] Colony morphology was determined by phase-contrast microscopy. For immunostaining, cells were permeabilized with 0.5% Triton X-100/PBS and blocked with 10% normal goat serum (Invitrogen) in PBS for 1 h. Primary antibodies were incubated overnight at 4°C in blocking buffer and washed 3 times with washing buffer (0.05% Triton X-100/PBS) and once with PBS. Secondary antibodies (dilution 1:200 in 1% normal goat serum/PBS) were added for 1 h and then washed. The samples were then mounted with ProLong Gold antifade reagent with DAPI (Molecular Probes/Invitrogen, CA), following the manufacturer instructions. All incubations and washes were done at 4 or 25°C as required. Confocal microscopy was performed using a Leica SP5 confocal microscope at the Shared Instrumentation facility of department of Hematology at Mount Sinai School of Medicine, NY.

MDA-MB-231 cells [4] = assay: Aldefluor ALDH1 activity in MDA-MB-231; assay type: cell-based, human; conditions: 1 μM, 72 h; mean of three independent experiments; p = 0.0395
Description: as §1

## CC[C@H](C)[C@H](NC(=O)[C@H](CC(C)C)NC(=O)[C@H](CC(C)C)NC(=O)[C@H](CCC(=O)O)NC(=O)[C@H](Cc1ccccc1)NC(=O)[C@@H]1CCCN1C(=O)[C@H](CCCNC(=N)N)NC(=O)[C@H](CCCNC(=N)N)NC(=O)[C@H](CC(C)C)NC(=O)[C@H](CCC(N)=O)NC(=O)CNC(=O)CNC(=O)CNC(=O)[C@H](CCC(N)=O)NC(=O)[C@H](CCCNC(=N)N)NC(=O)[C@H](CCCNC(=N)N)NC(=O)[C@H](CCCCN)NC(=O)[C@H](CCCCN)NC(=O)[C@H](CCCNC(=N)N)NC(=O)CNC(=O)[C@@H](N)Cc1ccc(O)cc1)C(=O)N[C@@H](C)C(=O)N[C@@H](C)C(=O)N[C@@H](C)C(=O)N[C@@H](CCSC)C(=O)N[C@@H](CCC(=O)O)C(=O)N[C@@H](CCCNC(=N)N)C(=O)N[C@@H](CC(N)=O)C(=O)N1CCC[C@H]1C(=O)N[C@H](C(=O)N[C@@H](CCC(N)=O)C(=O)O)[C@@H](C)O [PF1-SID] (H-YGRKKRRQGGGQLRRPFELLIAAAMERNPTQ-OH)
PAH2 domain of SIN3A
  IC50: 15.6 µM

## CC[C@H](C)[C@H](NC(=O)[C@H](CC(N)=O)NC(=O)[C@H](CCSC)NC(=O)[C@H](CCCNC(=N)N)NC(=O)[C@@H](NC(=O)CNC(=O)CNC(=O)CNC(=O)[C@H](CCC(N)=O)NC(=O)[C@H](CCCNC(=N)N)NC(=O)[C@H](CCCNC(=N)N)NC(=O)[C@H](CCCCN)NC(=O)[C@H](CCCCN)NC(=O)[C@H](CCCNC(=N)N)NC(=O)CNC(=O)[C@@H](N)Cc1ccc(O)cc1)C(C)C)C(=O)N[C@@H](CCC(N)=O)C(=O)N[C@@H](CCSC)C(=O)N[C@@H](CC(C)C)C(=O)N[C@@H](CC(C)C)C(=O)N[C@@H](CCC(=O)O)C(=O)N[C@@H](C)C(=O)N[C@@H](C)C(=O)N[C@@H](CC(=O)O)C(=O)N[C@@H](Cc1ccc(O)cc1)C(=O)N[C@@H](CC(C)C)C(=O)N[C@@H](CCC(=O)O)C(=O)N[C@@H](CCCNC(=N)N)C(=O)N[C@@H](CCCNC(=N)N)C(=O)N[C@@H](CCC(=O)O)C(=O)N[C@@H](CCCNC(=N)N)C(=O)O [Tat-SID] (H-YGRKKRRQGGGVRMNIQMLLEAADYLERRER-OH)
PAH2 domain of SIN3A
  IC50: 1.26 µM

## SID peptide: SID peptide expressed from a plasmid vector over a longer time period (previous study) (YGRKKRRQGGGVRMNIQMLLEAADYLERRER)
[1]
  H3K4me3 at CDH1 and ESR1 promoters: dramatic increases in H3K4^me3

## YGRKKRRQGGG-EQRARRIMERLLEYNMVADL [Tat-Scr]
MDA-MB-231 cells [2]
  CD44low/CD24low/neg population, mean: 6.7%
4T1 cells; 4T1 treated ex vivo with 2.5 μM, n = 5, Tat-SID p = 0.0446 versus Tat-Scr, vehicle 23
  number of lung metastasis, median: 13
4T1 cells; Tat-Scr 2.5 μM, p = 0.2107
  decrease in lung metastasis versus vehicle: not statistically significant
MDA-MB-231 cells [3]
  colony morphology: disorganized colonies with invasive projections
MDA-MB-231 cells [4]
  ALDH+ cells, mean: 21.3%
